In article PMC3177608 (ACS chemical biology, 2011):
Several values for one entry are separate records, joined by “and”; a condition that tells them apart may be missing. Equal entries are not always repeated. Entries after “also recorded” stand apart in the source; their conditions may differ.

Key:
Kir2.1 [1] = molecular target: T1, Kir2.1 (Mus musculus, UniProt P35561); experiment: whole cell
T1 sequence (P35561 1-428): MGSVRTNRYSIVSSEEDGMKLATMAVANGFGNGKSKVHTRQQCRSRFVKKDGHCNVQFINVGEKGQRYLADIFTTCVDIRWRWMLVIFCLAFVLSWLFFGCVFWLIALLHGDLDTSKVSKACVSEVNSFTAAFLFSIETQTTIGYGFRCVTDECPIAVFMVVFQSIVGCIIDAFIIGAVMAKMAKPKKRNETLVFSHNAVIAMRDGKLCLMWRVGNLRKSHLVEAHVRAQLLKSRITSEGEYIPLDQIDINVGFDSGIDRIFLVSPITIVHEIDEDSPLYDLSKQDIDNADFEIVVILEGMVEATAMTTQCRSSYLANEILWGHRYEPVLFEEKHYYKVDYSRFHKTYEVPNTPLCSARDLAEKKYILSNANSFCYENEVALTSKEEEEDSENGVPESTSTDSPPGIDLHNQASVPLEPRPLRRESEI

KATP channel = conditions: read-out: KATP channel IC50; cited from earlier work
[2] = intrinsic clearance, human
[3] = PubChem database; cited from earlier work
Kir1.1 N171D = Kir1.1 N171D (Rattus norvegicus, UniProt P35560, N171D); experiment: patch clamp, Kir1.1 N171D mutant
Sequence of Kir1.1 N171D (P35560 whole entry N171D): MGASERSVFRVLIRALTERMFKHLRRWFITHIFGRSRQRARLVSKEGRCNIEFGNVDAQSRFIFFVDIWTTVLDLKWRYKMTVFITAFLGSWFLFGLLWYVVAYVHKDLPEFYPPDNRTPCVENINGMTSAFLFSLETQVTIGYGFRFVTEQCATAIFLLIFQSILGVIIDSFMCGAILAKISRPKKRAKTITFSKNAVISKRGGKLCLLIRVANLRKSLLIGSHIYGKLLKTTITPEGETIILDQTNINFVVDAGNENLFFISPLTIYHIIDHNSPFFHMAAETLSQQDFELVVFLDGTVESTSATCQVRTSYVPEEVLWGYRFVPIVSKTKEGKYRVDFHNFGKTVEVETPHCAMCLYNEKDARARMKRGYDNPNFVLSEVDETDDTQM

L-type calcium channels = experiment: Ricerca Lead Profiling Screen radioligand binding
C25 N172D = C25 N172D (Mus musculus, UniProt P35561, A121P/A131S/A173S/C101L/C149F/C169V/C89I/D114R/D152E/DEL116-120/E125N/E153Q/F103W/F129M/F98L/G111K/I106V/I137L/I156T/I175M/I176C/I87V/INS113PEFYPPDN/L105V/L108Y/L109V/L90T/L94G/L97F/M160L/M180L/P155A/S124E/S128G/T141V/V102L/V126I/V158I/V161L/V162I/V167L/V179I/V86T/V93L/W104Y); experiment: patch clamp, C25 N172D mutant; conditions: pH 7.4
rKir4.1 = rKir4.1 (Rattus norvegicus, UniProt P49655); experiment: whole cell patch clamp, Kir4.1
hERG = hERG (Homo sapiens, UniProt Q12809); experiment: Ricerca Lead Profiling Screen radioligand binding
Sequence of hERG (Q12809 whole entry): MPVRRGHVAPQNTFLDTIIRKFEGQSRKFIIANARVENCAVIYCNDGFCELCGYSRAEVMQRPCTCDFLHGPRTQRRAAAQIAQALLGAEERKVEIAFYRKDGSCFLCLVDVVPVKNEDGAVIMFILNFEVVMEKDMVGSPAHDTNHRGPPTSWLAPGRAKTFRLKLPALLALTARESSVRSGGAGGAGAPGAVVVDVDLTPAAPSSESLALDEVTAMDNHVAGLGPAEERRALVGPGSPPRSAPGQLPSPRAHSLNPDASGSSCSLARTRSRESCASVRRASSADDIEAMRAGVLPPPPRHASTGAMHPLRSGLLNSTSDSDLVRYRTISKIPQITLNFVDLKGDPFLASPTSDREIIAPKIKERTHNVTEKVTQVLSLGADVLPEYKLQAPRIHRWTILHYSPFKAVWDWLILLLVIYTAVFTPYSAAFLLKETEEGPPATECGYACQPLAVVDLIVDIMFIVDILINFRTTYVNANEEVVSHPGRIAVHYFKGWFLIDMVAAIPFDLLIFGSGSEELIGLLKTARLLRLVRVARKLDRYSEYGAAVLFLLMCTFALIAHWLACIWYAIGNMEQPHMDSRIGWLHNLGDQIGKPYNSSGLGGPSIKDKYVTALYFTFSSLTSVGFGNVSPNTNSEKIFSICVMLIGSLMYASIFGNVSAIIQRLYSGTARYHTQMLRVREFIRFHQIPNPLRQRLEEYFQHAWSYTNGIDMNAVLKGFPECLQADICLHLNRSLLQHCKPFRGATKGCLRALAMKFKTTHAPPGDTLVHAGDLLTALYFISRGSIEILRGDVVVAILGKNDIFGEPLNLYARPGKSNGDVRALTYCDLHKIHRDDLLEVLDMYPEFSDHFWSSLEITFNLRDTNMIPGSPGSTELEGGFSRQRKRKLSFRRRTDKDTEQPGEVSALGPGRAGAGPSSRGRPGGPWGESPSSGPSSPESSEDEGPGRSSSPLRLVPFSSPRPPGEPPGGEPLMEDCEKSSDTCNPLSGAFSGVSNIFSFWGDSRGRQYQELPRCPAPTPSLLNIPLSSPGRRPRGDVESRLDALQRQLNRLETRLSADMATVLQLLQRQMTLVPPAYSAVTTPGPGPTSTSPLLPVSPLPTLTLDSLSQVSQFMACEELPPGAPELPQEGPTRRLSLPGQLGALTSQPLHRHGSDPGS

Kir1.1 = molecular target: T2, Kir1.1 (Rattus norvegicus, UniProt P35560); experiment: whole cell patch clamp, Kir1.1; format: cell-based
T2 sequence (P35560 1-391): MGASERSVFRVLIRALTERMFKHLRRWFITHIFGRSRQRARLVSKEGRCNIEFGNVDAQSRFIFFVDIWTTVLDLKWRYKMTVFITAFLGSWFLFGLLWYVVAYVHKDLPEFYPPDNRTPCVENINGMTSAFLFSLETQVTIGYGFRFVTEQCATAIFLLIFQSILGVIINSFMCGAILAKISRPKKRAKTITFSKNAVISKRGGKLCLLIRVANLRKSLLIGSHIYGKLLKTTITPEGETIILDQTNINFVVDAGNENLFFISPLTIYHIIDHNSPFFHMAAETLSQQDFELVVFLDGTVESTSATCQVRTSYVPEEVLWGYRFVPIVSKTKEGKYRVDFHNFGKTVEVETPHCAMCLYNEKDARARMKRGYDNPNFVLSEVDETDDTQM

hKir7.1 = hKir7.1 (Homo sapiens, UniProt O60928); experiment: whole cell patch clamp, Kir7.1; conditions: IC50 Kir7.1, pH 7.4
Sequence of hKir7.1 (O60928 whole entry): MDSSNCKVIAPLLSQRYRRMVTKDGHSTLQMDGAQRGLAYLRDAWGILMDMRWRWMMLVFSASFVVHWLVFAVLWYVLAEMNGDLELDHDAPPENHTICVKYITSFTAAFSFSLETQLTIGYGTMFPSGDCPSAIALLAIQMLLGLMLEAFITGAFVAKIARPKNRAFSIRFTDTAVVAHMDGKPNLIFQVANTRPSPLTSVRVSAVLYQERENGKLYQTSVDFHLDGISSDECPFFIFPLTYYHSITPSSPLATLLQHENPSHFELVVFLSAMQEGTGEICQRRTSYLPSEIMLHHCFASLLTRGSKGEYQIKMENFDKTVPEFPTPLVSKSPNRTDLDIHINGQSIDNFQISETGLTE

C25 chimera = molecular target: T3, C25 chimera (Mus musculus, UniProt P35561, A121P/A131S/A173S/C101L/C149F/C169V/C89I/D114R/D152E/D172N/DEL116-120/E125N/E153Q/F103W/F129M/F98L/G111K/I106V/I137L/I156T/I175M/I176C/I87V/INS113PEFYPPDN/L105V/L108Y/L109V/L90T/L94G/L97F/M160L/M180L/P155A/S124E/S128G/T141V/V102L/V126I/V158I/V161L/V162I/V167L/V179I/V86T/V93L/W104Y); experiment: patch clamp, C25 chimera; format: cell-based, mouse/rat; conditions: for inhibition of C25 current: pH 7.4
T3 sequence (P35561 with tags, fused parts or gaps V86T/I87V/C89I/L90T/V93L/L94G/L97F/F98L/C101L/V102L/F103W/W104Y/L105V/I106V/L108Y/L109V/G111K/INS113PEFYPPDN/D114R/DEL116-120/A121P/S124E/E125N/V126I/S128G/F129M/A131S/I137L/T141V/C149F/D152E/E153Q/P155A/I156T/V158I/M160L/V161L/V162I/V167L/C169V/D172N/A173S/I175M/I176C/V179I/M180L): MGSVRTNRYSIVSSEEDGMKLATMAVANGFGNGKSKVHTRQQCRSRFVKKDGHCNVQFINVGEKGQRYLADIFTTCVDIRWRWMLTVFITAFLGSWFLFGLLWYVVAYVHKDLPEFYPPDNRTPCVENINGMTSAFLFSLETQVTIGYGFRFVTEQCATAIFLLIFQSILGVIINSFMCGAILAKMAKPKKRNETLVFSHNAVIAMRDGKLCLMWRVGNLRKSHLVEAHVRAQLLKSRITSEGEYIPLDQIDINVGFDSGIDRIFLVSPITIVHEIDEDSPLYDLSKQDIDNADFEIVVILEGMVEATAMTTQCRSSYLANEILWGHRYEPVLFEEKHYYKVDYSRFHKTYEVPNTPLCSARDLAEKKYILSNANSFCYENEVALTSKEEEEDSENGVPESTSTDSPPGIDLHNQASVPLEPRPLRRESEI

Kir2.1 D172N = Kir2.1 D172N (Mus musculus, UniProt P35561, D172N); experiment: patch clamp, Kir2.1 D172N mutant
Kir2.1 [4] = molecular target: T1, Kir2.1; experiment: inside-out patch, compound applied from intracellular side; format: cell-based; conditions: IC50 Kir2.1, inside-out patch, pH 6.5, applied from intracellular side
hKir2.3 = hKir2.3 (Homo sapiens, UniProt P48050); experiment: whole cell patch clamp, Kir2.3
C25 N172D/M175I/C176I = C25 N172D/M175I/C176I (Mus musculus, UniProt P35561, A121P/A131S/A173S/C101L/C149F/C169V/C89I/D114R/D152E/DEL116-120/E125N/E153Q/F103W/F129M/F98L/G111K/I106V/I137L/I156T/I87V/INS113PEFYPPDN/L105V/L108Y/L109V/L90T/L94G/L97F/M160L/M180L/P155A/S124E/S128G/T141V/V102L/V126I/V158I/V161L/V162I/V167L/V179I/V86T/V93L/W104Y); experiment: patch clamp, C25 N172D/M175I/C176I mutant
[5] = Ricerca Lead Profiling Screen, 68 radioligand binding assays; conditions: GPCRs, ion channels and transporters
2D6 = 2D6 (Homo sapiens, UniProt P10635)
3A4 = 3A4 (Homo sapiens, UniProt P08684); experiment: CYP450 inhibition assay
2C9 = 2C9 (Homo sapiens, UniProt P11712); experiment: CYP450 inhibition assay
N-type calcium channels = N-type calcium channels (Rattus norvegicus, UniProt Q02294); experiment: Ricerca Lead Profiling Screen radioligand binding
Sequence of N-type calcium channels (Q02294 whole entry): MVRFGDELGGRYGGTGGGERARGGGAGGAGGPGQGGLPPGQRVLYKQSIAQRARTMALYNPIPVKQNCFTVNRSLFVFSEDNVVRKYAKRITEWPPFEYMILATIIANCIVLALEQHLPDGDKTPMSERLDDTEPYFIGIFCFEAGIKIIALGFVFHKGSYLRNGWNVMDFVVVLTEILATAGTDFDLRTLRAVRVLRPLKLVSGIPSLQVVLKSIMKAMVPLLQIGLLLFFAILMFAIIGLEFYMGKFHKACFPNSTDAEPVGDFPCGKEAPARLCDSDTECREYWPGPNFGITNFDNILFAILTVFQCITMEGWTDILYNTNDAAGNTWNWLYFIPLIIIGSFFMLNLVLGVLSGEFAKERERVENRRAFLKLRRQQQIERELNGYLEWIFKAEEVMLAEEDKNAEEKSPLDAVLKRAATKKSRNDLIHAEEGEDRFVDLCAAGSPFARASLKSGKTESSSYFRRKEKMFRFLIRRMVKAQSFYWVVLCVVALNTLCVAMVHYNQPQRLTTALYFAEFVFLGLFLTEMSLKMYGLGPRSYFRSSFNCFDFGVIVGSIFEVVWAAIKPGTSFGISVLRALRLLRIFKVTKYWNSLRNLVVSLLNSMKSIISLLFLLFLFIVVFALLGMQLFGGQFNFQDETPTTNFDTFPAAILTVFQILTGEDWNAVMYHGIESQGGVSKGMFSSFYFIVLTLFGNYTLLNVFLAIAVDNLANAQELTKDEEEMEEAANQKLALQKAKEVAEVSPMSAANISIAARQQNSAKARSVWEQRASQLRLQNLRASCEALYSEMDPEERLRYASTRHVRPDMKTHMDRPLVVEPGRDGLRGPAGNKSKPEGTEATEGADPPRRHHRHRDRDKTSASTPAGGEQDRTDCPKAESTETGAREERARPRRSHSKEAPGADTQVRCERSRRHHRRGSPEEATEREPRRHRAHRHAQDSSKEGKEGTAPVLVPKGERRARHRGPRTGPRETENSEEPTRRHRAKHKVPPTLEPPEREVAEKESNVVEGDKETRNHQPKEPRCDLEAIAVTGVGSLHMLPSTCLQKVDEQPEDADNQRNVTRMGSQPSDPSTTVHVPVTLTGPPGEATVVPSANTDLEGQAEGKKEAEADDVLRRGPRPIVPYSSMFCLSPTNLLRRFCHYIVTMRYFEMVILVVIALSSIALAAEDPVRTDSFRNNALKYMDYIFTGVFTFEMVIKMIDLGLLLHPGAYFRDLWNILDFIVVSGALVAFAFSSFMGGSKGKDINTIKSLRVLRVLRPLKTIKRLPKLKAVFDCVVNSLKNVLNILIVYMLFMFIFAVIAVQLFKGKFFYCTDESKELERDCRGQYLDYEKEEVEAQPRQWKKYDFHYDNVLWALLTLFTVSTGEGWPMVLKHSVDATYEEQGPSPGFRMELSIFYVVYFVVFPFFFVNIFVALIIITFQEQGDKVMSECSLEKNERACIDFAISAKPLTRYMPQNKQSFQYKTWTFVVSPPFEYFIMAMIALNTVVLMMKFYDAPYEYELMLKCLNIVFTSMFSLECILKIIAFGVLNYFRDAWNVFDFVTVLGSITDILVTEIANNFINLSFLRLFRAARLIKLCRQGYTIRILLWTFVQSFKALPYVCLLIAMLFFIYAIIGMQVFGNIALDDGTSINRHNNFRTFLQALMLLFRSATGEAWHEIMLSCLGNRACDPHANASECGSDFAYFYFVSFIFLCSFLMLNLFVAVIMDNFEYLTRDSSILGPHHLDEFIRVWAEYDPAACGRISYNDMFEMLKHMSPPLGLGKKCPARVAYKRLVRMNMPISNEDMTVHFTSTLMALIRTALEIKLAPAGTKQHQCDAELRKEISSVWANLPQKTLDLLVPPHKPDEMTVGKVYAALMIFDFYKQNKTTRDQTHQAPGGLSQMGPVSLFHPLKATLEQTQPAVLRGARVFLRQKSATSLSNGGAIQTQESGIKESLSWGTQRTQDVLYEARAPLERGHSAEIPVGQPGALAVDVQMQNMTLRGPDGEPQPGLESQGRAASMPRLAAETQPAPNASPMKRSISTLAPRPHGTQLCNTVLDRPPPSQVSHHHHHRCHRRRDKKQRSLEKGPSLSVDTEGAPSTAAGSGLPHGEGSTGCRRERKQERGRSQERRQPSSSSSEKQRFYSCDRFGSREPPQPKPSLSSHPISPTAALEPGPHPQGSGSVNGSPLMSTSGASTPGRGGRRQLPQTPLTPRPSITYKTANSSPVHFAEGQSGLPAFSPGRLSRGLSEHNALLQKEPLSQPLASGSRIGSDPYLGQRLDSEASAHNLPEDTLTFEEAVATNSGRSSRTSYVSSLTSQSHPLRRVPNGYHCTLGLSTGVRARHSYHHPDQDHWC

Kir1.1 N171D/C175I = Kir1.1 N171D/C175I (Rattus norvegicus, UniProt P35560, C175I/N171D); experiment: patch clamp, Kir1.1 N171D/C175I mutant
Sequence of Kir1.1 N171D/C175I (P35560 whole entry N171D/C175I): as the sequence (P35560 whole entry N171D) above, with C175I counted along it

1A2 = 1A2 (Homo sapiens, UniProt P05177)
Kir2.1 D172N/I176C = Kir2.1 D172N/I176C (Mus musculus, UniProt P35561, D172N/I176C); experiment: patch clamp, Kir2.1 D172N/I176C mutant
hKir2.6 = hKir2.6 (Homo sapiens, UniProt B7U540); experiment: whole cell patch clamp, Kir2.6
Sequence of hKir2.6 (B7U540 whole entry): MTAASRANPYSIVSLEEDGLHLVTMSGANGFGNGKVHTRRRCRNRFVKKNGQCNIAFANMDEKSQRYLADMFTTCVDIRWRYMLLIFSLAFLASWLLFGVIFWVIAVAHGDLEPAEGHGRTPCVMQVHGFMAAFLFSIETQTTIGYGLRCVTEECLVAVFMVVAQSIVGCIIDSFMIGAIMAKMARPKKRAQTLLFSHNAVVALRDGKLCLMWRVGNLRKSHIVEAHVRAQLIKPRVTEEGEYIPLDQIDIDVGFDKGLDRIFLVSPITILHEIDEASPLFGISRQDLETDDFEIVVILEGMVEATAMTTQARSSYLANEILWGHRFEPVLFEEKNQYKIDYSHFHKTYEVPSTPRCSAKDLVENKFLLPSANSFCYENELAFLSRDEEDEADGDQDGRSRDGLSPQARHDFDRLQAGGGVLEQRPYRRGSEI

[6] = read-out: IC50 Kir2.1, pH 8.5, manual patch clamp
[7] = pH 7.4, read-out: inhibition of C25 current

`COc1ccc(CNCc2ccccc2C)cc1` [14e] showed an IC50 (Kir2.1 [1]; [6]) of 5.15 µM.

For `COc1ccc(CNCc2ccc(Cl)cc2)cc1` [14a], the IC50 (Kir2.1 [1]; [6]) was 0.77 µM.

For `COc1ccc(CNCc2cccc(Cl)c2)cc1` [14b], the IC50 (Kir2.1 [1]; [6]) was 1.06 µM.

`COc1ccc(CNCc2ccc(Cl)cc2Cl)cc1` [13c] gave an IC50 (Kir2.1 [1]; [6]) of 3.89 µM.

With `COc1ccc(CNCc2ccccc2Cl)cc1` [14j] the IC50 (Kir2.1 [1]; [6]) was 13.9 µM.

In the case of `COc1ccc(CNCc2ccc(C(C)(C)C)cc2)cc1` [14d], the IC50 (Kir2.1 [1]; [6]) is reported as 1.39 µM.

With `COc1ccc(CNCc2ccc(OC)cc2)cc1` [14g] the IC50 (Kir2.1 [1]; read-out: IC50 Kir2.1, pH 7.4, whole cell, compound applied extracellularly) was 35 µM.

For `COc1ccc(CNCc2cccc3ccccc23)cc1` [ML133, N-(4-methoxybenzyl)-1-(naphthalen-1-yl)methanamine], the intrinsic clearance [2] is listed as “high intrinsic clearance”, the “activity in MLPCN HTS assays not based on Kir2.1” value [3] is listed as “inactive in all but two of 213 MLPCN HTS assays” and the “Hill coefficient (NH) Kir1.1 N171D” value (Kir1.1 N171D) is listed as 1.6. For the same compound, the IC50 (Kir1.1 N171D) was 83.6 µM, the “activity at L-type calcium channels” value (L-type calcium channels) was “inactive” and the IC50 (C25 N172D; IC50 C25 N172D) was 75 µM and 75.2 µM. For the same compound, the “Hill coefficient (NH) C25 N172D” value (C25 N172D) was 2.2, the IC50 (rKir4.1) was 76 µM and the “effect on Kir2.1 currents” value (Kir2.1 [1]; 3 μM, pH 6.5, 20 minute incubation) was “no significant effect”. The “time to complete inhibition of Kir2.1” value (Kir2.1 [1]; 3 μM, pH 8.5) was no more than 5 min, the “wash out of compound effects” value (Kir2.1 [1]; 3 μM, pH 8.5) was “approximately 10 minutes” and the IC50 (Kir2.1 [1]; IC50 Kir2.1, pH 6.5, whole cell) was 10 µM. The IC50 (Kir2.1 [1]; IC50 Kir2.1, pH 8.5, manual patch clamp) was 0.29 µM, the “Hill coefficient (NH) Kir2.1” value (Kir2.1 [1]; pH 6.5) was 1.8 and the “Hill coefficient (NH) Kir2.1” value (Kir2.1 [1]; pH 7.4) was 1.7. The “Hill coefficient (NH) Kir2.1” value (Kir2.1 [1]; pH 8.5) was 4.0, the protein bound (protein binding, human) was greater than 99% and the “activity at hERG” value (hERG) was “inactive”. The IC50 (Kir1.1; IC50 Kir1.1 (estimated), pH 8.5) was 85.5 µM, the IC50 (Kir1.1; IC50 Kir1.1, pH 7.4) was greater than 300 µM and the “effect on Kir1.1 current” value (Kir1.1; pH 7.4, up to 300 μM) was “essentially insensitive; also recorded: not inhibited”. The IC50 (hKir7.1) was 33 µM and 32.9 µM, the “inhibition of C25 current” value (C25 chimera; 30 μM) was “resistant” and the “inhibition of C25 current” value (C25 chimera; 100 μM) was “slightly inhibited”. The inhibition at 30 µM (C25 chimera; [7]) was less than 20%, the inhibition at 100 µM (C25 chimera; [7]) was roughly 30% and the “Hill coefficient (NH) Kir2.1 D172N” value (Kir2.1 D172N) was 1.3. The IC50 (Kir2.1 D172N; IC50 Kir2.1 D172N, pH 7.4) was 15 µM and 15.4 µM, the IC50 (Kir2.1 [4]) was 2.6 µM and the protein bound (protein binding, rat) was greater than 99%. The IC50 (hKir2.3) was 4 µM, the IC50 (C25 N172D/M175I/C176I) was 5.8 µM and the “Hill coefficient (NH) C25 triple mutant” value (C25 N172D/M175I/C176I; pH 7.4) was 1.1. The “ancillary pharmacology in 68-assay radioligand binding panel” value [5] was “clean ancillary pharmacology; also recorded: clean profile”, the IC50 (2D6) was 0.13 µM and the IC50 (3A4) was greater than 30 µM. The IC50 (2C9) was greater than 30 µM, the “activity at N-type calcium channels” value (N-type calcium channels) was “inactive” and the “Hill coefficient (NH) Kir1.1 N171D/C175I” value (Kir1.1 N171D/C175I) was 2.3. For the same compound, the IC50 (Kir1.1 N171D/C175I) was 64 µM, the IC50 (1A2) was 3.3 µM and the “Hill coefficient (NH) Kir2.1 D172N/I176C” value (Kir2.1 D172N/I176C) was 1.8. For the same compound, the IC50 (Kir2.1 D172N/I176C; IC50 Kir2.1 D172N/I176C, pH 7.4) was 45 µM and 43.6 µM, the IC50 (hKir2.6) was 2.8 µM and the intrinsic clearance (intrinsic clearance, rat) was “high intrinsic clearance”.

With `[Ba+2]` [barium, reference compound] the “inhibition of Kir1.1” value (Kir1.1; 5 mM) was “completely inhibited” and the “inhibition of Kir1.1 current” value (Kir1.1; at the end of the recording) was “over 85%”.
